Reference: patent US20200399308A1, “COMPOUNDS AND METHODS FOR ELICITING ANTIMICROBIAL ACTIVITY” (Technion Research & Development Foundation Limited, priority 2018, published 2020)
≈ marks a conversion by molar mass, not a printed value. Non-standard residues stand in square brackets, D forms with d. Residues, ends and D or L forms follow the SMILES beside them. *: point of attachment. 12Ado = NCCCCCCCCCCCC(=O)O; Decanoyl = CCCCCCCCCC(=O)*; Orn = NCCC[CH](N)C(=O)O

Key:
Hemolytic assay = assay type: cell-based; details: fresh mouse red blood cells (1%); hemolysis of 50% of mouse red blood cells (1%) after 3 hours in PBS; read-out: LC50, fifty percent lethal concentration (hemolysis)
Protocol: Organization of the compounds in aqueous solution was assessed by light-scattering measurements in phosphate buffered saline (PBS; 10 mM Na2HPO4, 150 mM NaCl, pH=7.0). Hemolytic assays were performed as described elsewhere, using fresh mouse red blood cells.
(§1) The mean value (±SD) is shown for Compound C; Minimum inhibitory concentration (MIC) of compounds required to inhibit bacterial proliferation after overnight incubation.

K. pneumoniae = experiment: Minimal bactericidal concentration; assay type: cell-based; details: Klebsiella pneumoniae
[1] = Charge at physiological pH (Q); assay type: physicochemical
[2] = tested on: Klebsiella pneumoniae C2 (carbapenemase 2-producing strain); experiment: Minimal inhibitory concentration; assay type: cell-based; details: Kp C2, overnight incubation, read-out: MIC
Protocol: (§2) Minimal inhibitory concentrations (MICs) were determined as previously described. […] MICs were determined by microdilution susceptibility testing in 96-well plates (by Nunc) using inocula of 10^5 bacteria per ml. Cell populations were evaluated by optical density measurements at 620 nm and were calibrated against a set of standards. Hundred (100) μl of a bacterial suspension were added to 100 μl of culture medium (control) or to 100 μl of culture medium containing various tested compound concentrations in 2-fold serial dilutions. Inhibition of proliferation was determined by optical density measurements at 620 nm after an incubation period of 24 hours at 37° C. Data were obtained from ≥2 independent experiments performed in duplicate.
as §1

[3] = tested on: Pseudomonas aeruginosa 11662; experiment: Minimal inhibitory concentration; assay type: cell-based; details: Pa 11662, overnight incubation, read-out: MIC
Protocol: as §2, §1

[4] = tested on: Klebsiella pneumoniae 1287; experiment: Minimal inhibitory concentration; assay type: cell-based; details: Kp 1287, overnight incubation, read-out: MIC
Protocol: as §2, §1

[5] = tested on: Pseudomonas aeruginosa 11816; experiment: Minimal inhibitory concentration; assay type: cell-based; details: Pa 11816, overnight incubation, read-out: MIC
Protocol: as §2, §1

[6] = tested on: Salmonella enterica serovar Choleraesuis 7308; experiment: Minimal inhibitory concentration; assay type: cell-based; details: CHOLERAESUIS / SC7308, SC 7308, overnight incubation, read-out: MIC
Protocol: as §2, §1

Escherichia coli ML35p = experiment: Minimal inhibitory concentration; assay type: cell-based; details: Ec ML35p, overnight incubation
Protocol: as §2, §1

Escherichia coli 25922 [7] = experiment: Minimal inhibitory concentration; assay type: cell-based; details: Ec 25922, overnight incubation, read-out: MIC
Protocol: as §2, §1

[8] = tested on: Salmonella enterica serovar Typhimurium 14028; experiment: Minimal inhibitory concentration; assay type: cell-based; details: ST 14028, overnight incubation, read-out: MIC
Protocol: as §2, §1

[9] = tested on: wild-type isogenic strain; experiment: MIC on wild-type isogenic strain; assay type: cell-based; details: Escherichia coli, data not shown
Source text: The following strains were used for the studies below: Escherichia coli strain ML-35p (American Type Culture Collection [ATCC]; […]. The following gram-positive species was investigated: methicillin-resistant Staphylococcus aureus clinical isolate USA300 10017 (a gift from Dr. Gili Regev-Yochay, Infectious Disease Unit, Sheba Medical Center, Israel). Additional Escherichia coli strains tested include β-lactamase producer 35218; clinical isolate strains 14182, 14384, and U16327; and two K12 isogenic mutants, AG100 and AG100A. Unless otherwise stated, all bacterial cultures were grown overnight in Luria-Bertani broth (LB).
as §2

[10] = tested on: Klebsiella pneumoniae 1287; experiment: Checkerboard assay with lysozyme in broth medium; assay type: cell-based; details: growth medium, 2.5, 5, 10 μM Compound B combined with lysozyme, 24 hours
Protocol: (§3) Inhibition was determined after 24 hours of incubation.

Escherichia coli 25922 [11] = experiment: Checkerboard assay with lysozyme in broth medium; assay type: cell-based
Protocol: as §3

Escherichia coli 25922 [12] = experiment: Serum survival assay; assay type: cell-based
Protocol: Serum survival assays were performed using fresh serum from normal mice or human serum from the Israel Blood Bank; samples were pooled and stored in aliquots at −80° C. until use. Time-dependent killing was determined in a final volume of 125 μL consisting of 112.5 μL of serum containing either a tested compound, egg white lysozyme (Amresco), lactoferrin (Vivinal lactoferrin FD; DMV International, Delhi, N.Y.), anti-murine C5/C5a antibody (25 μg/mL; ab194637; Abcam), or their combination, as specified. These solutions were supplemented with 12.5 μL of bacteria suspended in PBS at the desired concentration. After the specified time points of exposure, cultures were subjected to serial 10-fold dilutions in saline (0.85% NaCl) and plated for bacterial enumeration after incubation at 37° C. for an additional 24 hours. In heat-treated experiments, sera were incubated at 56° C. for 30 minutes for protein inactivation. Data were obtained from 3 independent experiments.

E. coli 25922 = experiment: Growth kinetics by absorbance at 620 nm; assay type: cell-based, Escherichia coli; details: 10 μM Compound B, culture medium
Protocol: (§4) FIGS. 6A-B present growth kinetics assessed by measuring the absorbance at 620 nm of E. coli 25922 (FIG. 6A) and K. pneumoniae 1287 (FIG. 6B) in absence or presence of the 10 μM of Compound B (circles denote vehicle control, triangles denote Compound B; error bars represent standard deviations).

K. pneumoniae 1287 = experiment: Growth kinetics by absorbance at 620 nm; assay type: cell-based, Klebsiella pneumoniae; details: 10 μM Compound B, culture medium
Protocol: as §4

[13] = Maximum tolerated dose, single-dose subcutaneous administration; assay type: in vivo; details: subcutaneous 20 mg/kg, mice
Protocol: Mortality was monitored for 7 days thereafter. Pharmacokinetic studies were performed as described elsewhere.

[14] = tested on: Klebsiella pneumoniae 1287; experiment: Mouse thigh infection model; assay type: in vivo; details: normal mice inoculated intramuscularly, treated s.c. 1 hour thereafter
Protocol: (§5) Mouse thigh infection model was afforded from normal ICR mice, which were inoculated intramuscularly and treated subcutaneously 1 hour thereafter with a tested compound or polymyxin B (PMB; Sigma-Aldrich) as described elsewhere. P values were calculated using a 1-tailed t test (assuming unequal variance). A P value of <0.05 is considered statistically significant.

Escherichia coli 25922 [15] = experiment: Mouse thigh infection model; assay type: in vivo; details: normal mice inoculated intramuscularly, treated s.c. 1 hour thereafter, CFU 24 hours post-treatment
Protocol: as §5

CCCCCCCCCC(=O)NC(CCCN)C(=O)NC(CCCN)C(=O)NCCCCCCCCCCCC(=O)NC(CCCN)C(N)=O (stereo not shown) [Compound B] (Decanoyl-[Orn][Orn][12Ado][Orn]-NH2; configuration not given here)
CC50 at 3 h (Hemolytic assay): > 100 µM
MBC (K. pneumoniae): > 50 µM
Q, charge at physiological pH [1]: 3
MIC [2]: > 50 µM
MIC [3]: 50 µM (≈ 35.6 µg/mL)
MIC [4]: > 50 µM
MIC [5]: 50 µM (≈ 35.6 µg/mL)
MIC [6]: > 50 µM
MIC (Escherichia coli ML35p): > 50 µM
MIC (Escherichia coli 25922 [7]): > 50 µM
MIC [8]: > 50 µM
MIC [9]: > 50 µM
growth inhibition in combination with lysozyme [10]: dose-dependent synergistic growth inhibition
growth inhibition in combination with lysozyme (Escherichia coli 25922 [11]; growth medium, 2.5, 5, 10 μM Compound B combined with lysozyme, 24 hours): dose-dependent synergistic growth inhibition
E. coli counts (final, from 4 log) (Escherichia coli 25922 [11]; medium, 10 μM Compound B plus 18 μM lysozyme): 9 log CFU/mL
inhibition at 10 µM (Escherichia coli 25922 [12]; Escherichia coli, 25922, 80% mouse serum, 10 μM Compound B, 3 h, read-out: growth inhibition in mouse serum): 74%
antibacterial effect in human serum (Escherichia coli 25922 [12]; 10 μM Compound B, absence of exogenous lysozyme): significant growth inhibition
antibacterial effect in human serum (Escherichia coli 25922 [12]; 10 μM Compound B, presence of exogenous lysozyme (18 μM)): potent bactericidal effect
growth inhibition in serum obtained from treated mice (Escherichia coli 25922 [12]; mouse serum obtained 1 hour after subcutaneous administration ([…]), 3 h incubation): 80%
E. coli counts (final, from 4 log) (Escherichia coli 25922 [12]; mouse serum, 10 μM Compound B plus 18 μM lysozyme): 1.7 log CFU/mL
growth kinetics in presence vs absence of compound (E. coli 25922): practically identical curves
growth kinetics in presence vs absence of compound (K. pneumoniae 1287): practically identical curves
adverse effects at highest tested dose [13]: did not result in any visible adverse effect
effect on proliferation in thigh [14]: significantly inhibited proliferation
reduction of the number of inoculated E. coli (Escherichia coli 25922 [15]): 80%
